Laboratory results from ChEMBL document CHEMBL1137067, “Alpha-1-C-alkyl-1-deoxynojirimycin derivatives as potent and selective inhibitors of intestinal isomaltase: remarkable effect of the alkyl chain length on glycosidase inhibitory profile” (Bioorg Med Chem Lett, 2004).
pIC50: −log10 of the molar value.

Assays:
[1] = molecular target: T1, Sucrase-isomaltase, intestinal (Rattus norvegicus, UniProt P23739); assay: Inhibition of rat intestinal sucrase using disaccharide
[2] = Inhibitory activity against alpha-Glucosidase from Yeast; design: species or system Saccharomyces cerevisiae
Alpha-glucosidase = molecular target: T2, Alpha-glucosidase (Oryza sativa Japonica Group, UniProt Q9LGC6); assay: Inhibitory activity against alpha-Glucosidase from rice
T2 sequence (Q9LGC6 whole entry): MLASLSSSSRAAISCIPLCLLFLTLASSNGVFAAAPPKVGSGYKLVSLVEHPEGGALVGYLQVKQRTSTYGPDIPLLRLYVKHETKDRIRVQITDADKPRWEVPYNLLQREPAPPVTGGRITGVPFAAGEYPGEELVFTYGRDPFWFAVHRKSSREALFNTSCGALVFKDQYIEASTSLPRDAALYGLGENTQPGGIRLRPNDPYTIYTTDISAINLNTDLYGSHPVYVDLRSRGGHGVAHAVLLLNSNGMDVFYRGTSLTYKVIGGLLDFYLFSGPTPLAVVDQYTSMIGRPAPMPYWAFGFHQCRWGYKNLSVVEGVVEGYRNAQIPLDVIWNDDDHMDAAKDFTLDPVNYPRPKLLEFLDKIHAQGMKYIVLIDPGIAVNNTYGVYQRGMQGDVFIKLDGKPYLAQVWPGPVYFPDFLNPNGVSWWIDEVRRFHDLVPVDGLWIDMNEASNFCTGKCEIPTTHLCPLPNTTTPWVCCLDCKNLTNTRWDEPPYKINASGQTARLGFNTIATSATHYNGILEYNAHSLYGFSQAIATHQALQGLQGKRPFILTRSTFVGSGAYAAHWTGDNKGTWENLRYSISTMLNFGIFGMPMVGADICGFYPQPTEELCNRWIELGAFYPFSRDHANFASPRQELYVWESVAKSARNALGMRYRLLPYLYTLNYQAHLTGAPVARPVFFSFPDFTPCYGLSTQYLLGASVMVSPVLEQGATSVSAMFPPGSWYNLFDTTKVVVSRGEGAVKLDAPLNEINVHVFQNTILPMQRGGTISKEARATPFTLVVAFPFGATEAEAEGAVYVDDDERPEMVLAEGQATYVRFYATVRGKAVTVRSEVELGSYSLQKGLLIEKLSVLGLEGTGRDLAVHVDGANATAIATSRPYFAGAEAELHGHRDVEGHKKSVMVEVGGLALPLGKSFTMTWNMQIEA

[3] = molecular target: T1, Sucrase-isomaltase, intestinal; assay: Inhibition of rat intestinal isomaltase using disaccharide
[4] = molecular target: T1, Sucrase-isomaltase, intestinal; assay: Inhibition of rat intestinal maltase using disaccharide
Saccharomyces cerevisiae = assay: Inhibitory activity against alpha-Glucosidase from Yeast at 1000 uM
Beta-glucosidase A = Beta-glucosidase A (Caldicellulosiruptor saccharolyticus, UniProt P10482); assay: Inhibitory activity against beta-Glucosidase from Caldocellum saccharolyticum
Beta-glucosidase A, sequence (P10482 whole entry): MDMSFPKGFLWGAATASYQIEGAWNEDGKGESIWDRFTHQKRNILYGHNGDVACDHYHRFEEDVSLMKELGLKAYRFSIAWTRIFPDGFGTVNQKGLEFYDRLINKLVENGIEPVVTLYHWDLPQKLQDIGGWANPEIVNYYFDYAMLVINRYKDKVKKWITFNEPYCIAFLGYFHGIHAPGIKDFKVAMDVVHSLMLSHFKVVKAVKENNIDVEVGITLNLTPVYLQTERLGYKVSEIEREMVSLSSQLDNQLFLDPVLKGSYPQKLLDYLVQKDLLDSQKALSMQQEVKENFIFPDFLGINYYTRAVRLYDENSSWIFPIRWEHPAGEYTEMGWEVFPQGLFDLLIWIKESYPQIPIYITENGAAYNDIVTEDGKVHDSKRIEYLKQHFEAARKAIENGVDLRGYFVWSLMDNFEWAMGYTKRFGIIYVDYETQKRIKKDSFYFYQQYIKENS

[5] = molecular target: Beta-glucosidase A (Caldicellulosiruptor saccharolyticus) (UniProt P10482); assay: Inhibitory activity against beta-Glucosidase from Caldocellum saccharolyticum at 1000 uM
Beta-glucosidase A (Caldicellulosiruptor saccharolyticus), sequence (P10482 whole entry): as above

T1 sequence (P23739 1-1013 limits assumed): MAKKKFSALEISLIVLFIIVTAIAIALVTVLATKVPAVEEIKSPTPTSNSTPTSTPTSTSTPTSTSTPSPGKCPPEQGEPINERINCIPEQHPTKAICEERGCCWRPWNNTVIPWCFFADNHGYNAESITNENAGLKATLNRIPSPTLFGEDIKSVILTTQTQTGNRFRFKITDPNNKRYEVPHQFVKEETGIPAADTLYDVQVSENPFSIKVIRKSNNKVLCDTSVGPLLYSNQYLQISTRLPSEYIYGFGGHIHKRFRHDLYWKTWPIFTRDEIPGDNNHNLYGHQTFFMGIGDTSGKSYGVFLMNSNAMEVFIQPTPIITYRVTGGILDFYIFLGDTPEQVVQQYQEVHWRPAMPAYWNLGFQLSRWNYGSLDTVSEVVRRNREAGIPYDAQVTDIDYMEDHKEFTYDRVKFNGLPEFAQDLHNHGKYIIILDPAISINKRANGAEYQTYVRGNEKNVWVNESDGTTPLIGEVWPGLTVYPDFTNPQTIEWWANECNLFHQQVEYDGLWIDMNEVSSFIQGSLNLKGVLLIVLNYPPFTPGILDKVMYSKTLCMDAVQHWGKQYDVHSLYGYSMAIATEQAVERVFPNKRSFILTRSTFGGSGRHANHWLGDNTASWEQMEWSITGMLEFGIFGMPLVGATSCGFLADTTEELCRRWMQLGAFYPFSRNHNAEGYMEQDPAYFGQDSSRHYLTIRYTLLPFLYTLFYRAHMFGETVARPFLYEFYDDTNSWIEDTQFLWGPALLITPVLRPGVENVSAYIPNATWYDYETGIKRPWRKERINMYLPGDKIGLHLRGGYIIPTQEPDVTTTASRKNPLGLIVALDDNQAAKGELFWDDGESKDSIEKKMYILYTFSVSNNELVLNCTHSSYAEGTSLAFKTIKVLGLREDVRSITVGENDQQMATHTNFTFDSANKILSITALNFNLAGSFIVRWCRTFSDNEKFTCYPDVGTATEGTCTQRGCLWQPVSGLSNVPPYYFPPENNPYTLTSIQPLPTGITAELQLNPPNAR
T1 sequence (P23739 1014-1841 limits assumed): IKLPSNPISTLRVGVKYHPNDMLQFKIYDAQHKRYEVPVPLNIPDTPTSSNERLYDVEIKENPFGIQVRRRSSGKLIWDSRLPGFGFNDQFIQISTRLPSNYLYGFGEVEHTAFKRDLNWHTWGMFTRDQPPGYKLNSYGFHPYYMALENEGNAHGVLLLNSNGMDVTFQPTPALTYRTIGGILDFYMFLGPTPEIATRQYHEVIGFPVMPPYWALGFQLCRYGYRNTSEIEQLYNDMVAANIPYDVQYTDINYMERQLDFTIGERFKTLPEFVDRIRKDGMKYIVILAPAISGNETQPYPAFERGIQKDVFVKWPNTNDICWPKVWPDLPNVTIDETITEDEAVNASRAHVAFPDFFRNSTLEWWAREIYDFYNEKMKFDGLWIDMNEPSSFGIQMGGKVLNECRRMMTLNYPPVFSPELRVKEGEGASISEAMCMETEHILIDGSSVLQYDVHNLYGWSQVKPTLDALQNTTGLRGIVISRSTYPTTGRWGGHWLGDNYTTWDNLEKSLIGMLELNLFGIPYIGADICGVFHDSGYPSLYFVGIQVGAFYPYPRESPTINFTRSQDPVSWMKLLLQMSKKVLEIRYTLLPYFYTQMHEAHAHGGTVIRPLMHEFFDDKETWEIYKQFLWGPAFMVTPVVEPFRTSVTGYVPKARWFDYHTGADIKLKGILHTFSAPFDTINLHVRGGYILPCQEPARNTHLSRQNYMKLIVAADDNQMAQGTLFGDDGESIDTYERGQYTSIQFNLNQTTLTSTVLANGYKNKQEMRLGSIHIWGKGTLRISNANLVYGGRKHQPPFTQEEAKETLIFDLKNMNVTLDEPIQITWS

pIC50 [1]	pIC50 [2]	pIC50 (Alpha-glucosidase)	pIC50 [3]	pIC50 [4]	inhibition (Saccharomyces cerevisiae) [%]	pIC50 (Beta-glucosidase A)	inhibition [5] [%]	SMILES
6.18	–	7.10	6.55	5.82	< 50	3.80	–	CCCCCCCCN1CC(O)C(O)C(O)C1CO (stereo not given)
5.70	–	5.70	5.85	5.15	< 50	4.00	–	CCCN1CC(O)C(O)C(O)C1CO (stereo not given)
5.60	4.25	5.82	8.46	5.40	–	4.10	–	CCCCCCCCCC1NC(CO)C(O)C(O)C1O (stereo not given)
–	–	6.38	–	–	< 50	–	< 50	CCCCN1C[C@H](O)[C@@H](O)[C@H](O)[C@H]1CO
5.82	4.60	6.23	7.05	5.72	–	3.96	–	CCCCCCCCC1NC(CO)C(O)C(O)C1O (stereo not given)
5.44	3.33	4.96	6.82	4.92	–	–	< 50	CCCC[C@H]1N[C@@H](CO)[C@@H](O)[C@H](O)[C@@H]1O
–	3.72	–	–	–	–	–	–	OC[C@H]1NC[C@H](O)[C@@H](O)[C@@H]1O [DUVOGLUSTAT]
3.81	–	4.21	3.94	3.68	< 50	–	< 50	CCCC[C@@H]1N[C@@H](CO)[C@@H](O)[C@H](O)[C@@H]1O
5.92	4.28	6.10	6.51	5.46	–	–	< 50	CCCCCCC1NC(CO)C(O)C(O)C1O (stereo not given)
6.35	–	6.15	6.35	5.43	< 50	3.35	–	CCCCCCN1CC(O)C(O)C(O)C1CO (stereo not given)

SMILES	pIC50 [1]	pIC50 [2]	pIC50 (Alpha-glucosidase)	pIC50 [3]	pIC50 [4]	inhibition (Saccharomyces cerevisiae) [%]	pIC50 (Beta-glucosidase A)	inhibition [5] [%]
CCCC1NC(CO)C(O)C(O)C1O (stereo not given)	4.41	3.20	4.82	6.28	4.37	–	–	–
CCCCCCCCCN1CC(O)C(O)C(O)C1CO (stereo not given)	–	–	7.10	–	5.89	< 50	–	–
